US20120302569A1, “PHENYL-THIAZOLYL INHIBITORS OF PRO-MATRIX METALLOPROTEINASE ACTIVATION” (priority 2011, published 2012)

Assays:
proMMP9 = target: T1, proMMP9 (Homo sapiens, UniProt P14780); assay: Activation of proMMP9 by human fetal lung fibroblast (HFL-1) cultures (Western blot); assay type: cell-based; details: 3.3 μM Compound α
T1 construct: host or cells: HFL-1 human fetal lung fibroblasts
Procedure: Activation of proMMP9 by Human Fetal Lung Fibroblast Cultures
Compound α was assessed additionally for ability to block the maturation of proMMP9 to active MMP9 in cultures of human fetal lung fibroblasts (HFL-1, American Type Culture Collection #CCL-153). Unlike rat synoviocytes, HFL-1 cells were unable to process proMMP9 to the active form without addition of neutrophil elastase. […] Rather, the function of elastase in this assay may be to inactivate tissue inhibitors of matrix metalloproteinases (TIMPs) that repress endogenous pathways of MMP9 activation (Am J Respir Crit. Care Med; 1999; 159:1138-46).
HLF-1 were maintained in monolayer culture in DMEM with 10% FCS and were used between passage numbers 5-15. HLF-1 were embedded in collagen gels as described for rat SCW synoviocytes (vida supra). Half mL gels containing 0.4 million cells were dislodged into wells of 12 well Costar plates containing 1 mL/well of DMEM adjusted to contain 0.05% BSA and 100 ng/mL human TNFα (R&D Systems Cat #210-TA/CF). After overnight culture (37° C. and 5% CO2) wells were adjusted to contain an additional 0.5 mL of DMEM containing 0.05% BSA and with or without 13.2 μM Compound α (final concentration was 3.3 μM Compound α). Next, cultures were adjusted to contain 30 nM human elastase (Innovative Research). The plates were cultured an additional 72 hrs, at which time MMP9 secreted into the conditioned media was bound to gelatin-sepharose and evaluated by Western blot analysis as described for the rat synoviocyte cultures (vida supra). mAb-51/82 detected three forms of MMP9 in HFL-1 cultures.
A second experiment was performed to determine if the 80 kD form was mature active MMP9 and to determine the potency of Compound α as an inhibitor of MMP9 maturation in this assay. HFL-1 cells embedded in collagen gels were cultured as described above in the presence of TNFα overnight and the cultures were then adjusted to contain 30 nM elastase and graded concentrations of Compound α for an additional 72 hrs at which time MMP9 secreted into the conditioned media was bound to gelatin-sepharose and evaluated by Western blot analysis for active MMP9 using pAb-1246 raised against the N-terminal neoepitope of active MMP9 (Table 5). In the absence of Compound α, pAb-1246 readily detected MMP9 with an electrophoretic mobility of approximately 80 kD. […] Inhibition occurred over a dose range with an IC50 of approximately 0.3 μM Compound α.

MMP9 = target: T2, MMP9 (Rattus norvegicus, UniProt P50282); assay: Active MMP9 in ankles of rats with SCW-induced arthritis by Western blot; assay type: in vivo; details: day 26, four hours after AM dose; FIG. 3A lanes 4-9
T2 construct: Pro and active MMP9 were abundantly present in ankles of SCW-induced vehicle-treated rats; from tissue; host or cells: tibia-tarsus joints (ankles) of female Lewis rats
T2 sequence (P50282 108-708): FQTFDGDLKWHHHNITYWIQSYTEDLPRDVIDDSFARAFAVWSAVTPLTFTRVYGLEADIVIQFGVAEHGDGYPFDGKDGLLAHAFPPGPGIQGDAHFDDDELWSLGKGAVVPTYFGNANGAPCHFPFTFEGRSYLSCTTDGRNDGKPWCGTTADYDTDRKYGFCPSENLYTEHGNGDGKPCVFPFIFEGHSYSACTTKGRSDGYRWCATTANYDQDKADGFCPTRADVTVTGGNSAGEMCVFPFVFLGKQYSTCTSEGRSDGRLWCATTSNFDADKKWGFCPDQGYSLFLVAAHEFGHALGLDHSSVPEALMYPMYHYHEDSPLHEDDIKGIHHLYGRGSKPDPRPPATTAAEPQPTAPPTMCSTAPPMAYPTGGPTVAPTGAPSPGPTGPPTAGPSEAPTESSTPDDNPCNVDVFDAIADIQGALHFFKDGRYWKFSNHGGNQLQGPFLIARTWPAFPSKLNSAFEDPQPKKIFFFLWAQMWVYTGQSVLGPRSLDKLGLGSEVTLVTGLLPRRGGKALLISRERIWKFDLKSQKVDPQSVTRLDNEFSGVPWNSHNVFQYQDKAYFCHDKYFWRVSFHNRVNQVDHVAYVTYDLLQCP
Procedure: Hind-limbs were skinned, severed just above the tibia-tarsus joint and below the metatarsals, and the tibia-tarsus joints (ankles) were weighed, snap frozen and pulverized on dry ice using a hammer and anvil. The pulverized tissue was suspended in 3 volumes (w:v) of ice-cold homogenization buffer containing 50 mM Tris pH 7.5, 150 mM NaCl, 5 mM EDTA, 1% Triton X100, 0.05% Brij 30, 10% dimethylsulfoxide and Complete EDTA-free Protease Inhibitor Cocktail (Roche Diagnostics). The suspended tissue was homogenized sequentially with a Kinematica AG Polytron and a Dounce homogenizer. Homogenates were centrifuged at 16,000×g for 10 min at 4° C. and the soluble fractions were saved. Dimethylsulfoxide was removed from a portion of each soluble fraction using PD MiniTrap™ G-25 desalting columns (GE Healthcare). Homogenates (0.25 mL), free of DMSO, were diluted with an equal volume of binding buffer (i.e., homogenization buffer without dimethylsufoxide) and adjusted to contain 50 μL of a 50% slurry of gelatin-conjugated sepharose. Following 2 hours of rotation at 4° C. the beads were washed twice in binding buffer and eluted in 100 μL 2×-reducing Laemmli buffer with heating to 95° C. for 5 minutes. […]

T1 sequence (P14780 20-707 limits assumed): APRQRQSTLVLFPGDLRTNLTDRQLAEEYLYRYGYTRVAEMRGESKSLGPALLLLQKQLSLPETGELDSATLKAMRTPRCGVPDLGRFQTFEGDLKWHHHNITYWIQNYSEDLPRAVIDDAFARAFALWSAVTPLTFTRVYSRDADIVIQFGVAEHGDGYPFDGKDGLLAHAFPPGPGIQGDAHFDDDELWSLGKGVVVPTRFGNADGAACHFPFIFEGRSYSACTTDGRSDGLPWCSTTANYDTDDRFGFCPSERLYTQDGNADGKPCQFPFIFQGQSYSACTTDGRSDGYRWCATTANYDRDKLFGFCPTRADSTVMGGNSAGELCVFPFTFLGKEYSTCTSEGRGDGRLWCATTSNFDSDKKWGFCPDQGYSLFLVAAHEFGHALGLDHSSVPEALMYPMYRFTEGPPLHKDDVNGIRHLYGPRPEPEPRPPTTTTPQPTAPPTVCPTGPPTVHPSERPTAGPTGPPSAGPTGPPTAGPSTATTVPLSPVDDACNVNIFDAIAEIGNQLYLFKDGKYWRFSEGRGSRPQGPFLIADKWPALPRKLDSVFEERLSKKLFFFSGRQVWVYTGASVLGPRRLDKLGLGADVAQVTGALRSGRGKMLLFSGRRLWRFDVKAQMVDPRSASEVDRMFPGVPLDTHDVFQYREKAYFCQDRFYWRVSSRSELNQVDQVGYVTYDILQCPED

Percent of total signal 80 kD (proMMP9): 7%
Percent of total signal 86 kD (proMMP9): 47%
Percent of total signal 100 kD (proMMP9): 46%
Signal Total (proMMP9; 30 nM elastase, 72 hrs, mAb-L51/82): 91346 INT*mm^2
abundance of proMMP9 in ankles (MMP9): did not reduce
Structure (SMILES): Cc1nc(C)c(-c2csc(Nc3cc(S(N)(=O)=O)ccc3OC(C)C)n2)s1 [Compound α, 3-(2′,4′-Dimethyl-[4,5′]bithiazolyl-2-ylamino)-4-isopropoxy-benzenesulfonamide.HBr]
